Test results published in article PMC11413854, “Reversible Control of Native GluN2B-Containing NMDA Receptors with Visible Light” (ACS Chemical Neuroscience, 2024).
Read-outs that look alike come from different tables or passages of the source.

Molecular target: T1, GluN1/GluN2B NMDA receptors (UniProt P35439+Q01097)
T1 construct: expressed in transfected cells; host or cells: Xenopus laevis oocytes (nuclear cDNA injection)
Test: TEVC electrophysiology on Xenopus oocytes expressing wt GluN1/GluN2B NMDARs
Assay type: cell-based, rat GluN1, mouse GluN2B
Settings: for Relative current for theoretical DRC 9% trans / Relative current for theoretical DRC 18% trans / remaining activity at 0.03 µM / remaining activity at 0.1 µM / remaining activity at 0.3 µM / remaining activity at 2 µM: GluN1/GluN2B wt; for Relative current for theoretical DRC 9% trans: theoretical for 350 nm PSS; for Relative current for theoretical DRC 18% trans: theoretical for 365 nm PSS; for remaining activity at 0.03 µM / remaining activity at 0.1 µM / remaining activity at 0.3 µM / remaining activity at 2 µM: Sup. Fig. 3F, read-out: Relative current (IOpto/I0); for remaining activity at 0.03 µM: [OptoNAM-3] 0.03 µM; for remaining activity at 0.1 µM: [OptoNAM-3] 0.1 µM
Excerpt: The activity of OptoNAM-3 was functionally monitored by electrophysiology on Xenopus oocytes (see Methods). To assess the light-dependent effect, we tested the activities of the dark PSS (mostly trans) and the UV PSS (mostly cis, see above) separately. For each concentration, we prepared a solution divided into two samples: one in which the compound was kept in the dark for the duration of the experiment (dark PSS state); and the other that was preilluminated with either 350 or 365 nm light (350 or 365 nm PSS) and then kept away from the light for the duration of the experiment in order to avoid photoisomerization of the compounds by ambient light (see Methods). […] We generated dose–response curves of OptoNAM-3 dark and UV PSS on wild-type (wt) GluN1/GluN2B NMDA receptors (Figure 3A) in the presence of saturating concentrations of agonists (100 μM glutamate and glycine).
We used cDNA coding for rat GluN1–1a (named GluN1 herein) (GenBank: U08261.1), rat GluN2A (GenBank: D13211.1), mouse GluN2B (GenBank: D10651.2), rat GluA1 flop (GenBank: M36418.2), and rat Myc-GluA2(Q)-flip (GenBank: AF164344.1) cloned into pcDNA3-based expression plasmids. GluK2 (GenBank: Z11548.1) corresponds to the fully RNA-edited version.[80] The GluN2B-ΔNTD construct is from ref[45] and GluN2B–N615K is from ref[81]. Single mutants GluN2B-Q110G and GluN1-L135H were from ref[19]. The GluA2 cDNA contains a Myc tag ([…]) fused between the signal peptide and the N-terminus sequences, and the GluA2 subunit is […] for its Q/R/N site (GluA2(Q)) to allow permeation of homomeric GluA2 receptors.[2] cDNAs coding for rat GluN2C (GenBank: M91563.1) and GluN2D subunits (GenBank: L31611.1) were in prK5 plasmids.
Oocytes from Xenopus laevis were used for heterologous expression of recombinant NMDA receptors studied using a two-electrode voltage clamp (TEVC). Female Xenopus laevis were housed and ovary bags harvested according to the European Union guidelines (husbandry authorizations #C75–05–31 and #D75–05–31; project authorizations #05137.02; and Apafis #28867–2020121814485893). Fragments of ovary bags were also purchased from the “Centre de Ressources Biologiques Xenopes” (now TEFOR, Paris Saclay, France) and from the European Xenopus Resource Center (EXRC, Portsmouth, UK). Xenopus laevis oocytes were harvested and prepared as previously described in ref[82].
Expression of recombinant NMDA receptors was obtained by oocyte nuclear coinjection of 37 nL of a mixture of cDNAs (at 30 ng/μL) coding for GluN1–1a and various GluN2 subunits (ratio 1:1). The protocol in ref[43] was followed for the expression of GluN1/GluN2A/GluN2B triheteromers. The oocytes were transferred in 96-well plates filled with Barth solution (in mM: 88 NaCl, 1 KCl, 0.33 Ca(NO3)2, 0.41 CaCl2, 0.82 MgSO4, 2.4 NaHCO3, and 7.5 HEPES, pH adjusted to 7.3 with NaOH), supplemented with gentamicin ([…]) and 50 μM APV, a selective NMDA receptor antagonist. Plates were then stored at 18 °C for 24 h for GluN1/GluN2A expression and for 48––72 h for the expression of GluN1/Glu2B, GluN1/GluN2A/GluN2B, and mutants.
TEVC recordings were performed 1–3 days following injection. TEVC recordings were performed using an Oocyte Clamp amplifier OC-725 (Warner Instruments) and computer-controlled via a 1440A Digidata (Molecular Devices). Currents were sampled at 100 Hz and low-pass-filtered at 20 Hz using an 8-pole Bessel filter (900 Series, Frequency Devices Inc.).

[1] = OptoNAM-3 dark PSS (trans) + 0.2 µM ifenprodil
[2] = OptoNAM-3 dark PSS (trans), no ifenprodil
[3] = preilluminated in solution, Xenopus oocytes

T1 sequence (Q01097 27-1482, other chains not shown): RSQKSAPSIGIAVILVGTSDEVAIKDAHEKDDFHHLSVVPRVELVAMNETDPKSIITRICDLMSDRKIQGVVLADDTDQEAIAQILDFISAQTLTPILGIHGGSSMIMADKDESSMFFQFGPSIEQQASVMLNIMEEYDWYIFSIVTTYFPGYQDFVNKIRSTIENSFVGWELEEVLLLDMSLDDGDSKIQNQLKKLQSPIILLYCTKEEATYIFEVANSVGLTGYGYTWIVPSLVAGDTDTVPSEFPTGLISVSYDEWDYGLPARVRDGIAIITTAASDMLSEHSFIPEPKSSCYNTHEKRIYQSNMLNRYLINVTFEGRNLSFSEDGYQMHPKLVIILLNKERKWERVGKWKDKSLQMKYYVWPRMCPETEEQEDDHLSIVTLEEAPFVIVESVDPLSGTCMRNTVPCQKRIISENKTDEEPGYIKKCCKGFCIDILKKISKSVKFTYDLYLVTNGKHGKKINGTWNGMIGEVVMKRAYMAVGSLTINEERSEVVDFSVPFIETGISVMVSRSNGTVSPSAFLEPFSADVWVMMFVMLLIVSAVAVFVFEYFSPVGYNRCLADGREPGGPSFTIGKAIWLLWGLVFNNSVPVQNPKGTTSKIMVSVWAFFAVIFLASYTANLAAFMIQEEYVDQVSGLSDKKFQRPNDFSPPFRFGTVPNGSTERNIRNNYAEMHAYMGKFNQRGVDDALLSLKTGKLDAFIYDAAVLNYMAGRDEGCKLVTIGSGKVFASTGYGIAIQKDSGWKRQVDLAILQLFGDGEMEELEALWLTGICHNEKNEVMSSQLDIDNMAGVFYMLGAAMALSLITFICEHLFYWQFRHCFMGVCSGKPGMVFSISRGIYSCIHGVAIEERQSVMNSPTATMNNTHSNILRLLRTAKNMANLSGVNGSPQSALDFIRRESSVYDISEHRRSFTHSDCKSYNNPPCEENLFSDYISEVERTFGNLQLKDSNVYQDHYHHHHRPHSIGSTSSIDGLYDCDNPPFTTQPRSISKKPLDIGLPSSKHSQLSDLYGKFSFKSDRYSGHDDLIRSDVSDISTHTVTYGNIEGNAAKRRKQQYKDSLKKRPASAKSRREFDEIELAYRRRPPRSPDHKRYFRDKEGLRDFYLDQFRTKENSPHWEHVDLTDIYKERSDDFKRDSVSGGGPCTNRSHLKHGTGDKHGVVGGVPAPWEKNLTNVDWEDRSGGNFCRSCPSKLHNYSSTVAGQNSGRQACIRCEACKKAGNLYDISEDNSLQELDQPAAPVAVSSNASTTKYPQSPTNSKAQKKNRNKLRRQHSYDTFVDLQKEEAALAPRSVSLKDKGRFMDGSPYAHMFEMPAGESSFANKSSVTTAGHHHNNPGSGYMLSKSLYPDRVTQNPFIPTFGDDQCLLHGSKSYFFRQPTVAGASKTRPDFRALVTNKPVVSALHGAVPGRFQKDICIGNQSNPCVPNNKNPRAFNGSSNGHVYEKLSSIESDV

c1ccc(/N=N/c2ccc(CCNc3ccncc3)cc2)cc1 [OptoNAM-3, (E)-N-(4-(Phenyldiazenyl)phenethyl)pyridin-4-amine]
Relative current for theoretical DRC 9% trans ([OptoNAM-3] 1 µM): 0.775
Relative current for theoretical DRC 9% trans ([OptoNAM-3] 2 µM): 0.656
Relative current for theoretical DRC 9% trans ([OptoNAM-3] 3 µM): 0.570
Relative current for theoretical DRC 9% trans ([OptoNAM-3] 5 µM): 0.452
Relative current for theoretical DRC 18% trans ([OptoNAM-3] 0.025 µM): 0.980
Relative current for theoretical DRC 18% trans ([OptoNAM-3] 0.05 µM): 0.965
Relative current for theoretical DRC 18% trans ([OptoNAM-3] 0.125 µM): 0.924
Relative current for theoretical DRC 18% trans ([OptoNAM-3] 0.22 µM): 0.880
Relative current for theoretical DRC 18% trans ([OptoNAM-3] 0.3 µM): 0.848
Relative current for theoretical DRC 18% trans ([OptoNAM-3] 0.5 µM): 0.775
Relative current for theoretical DRC 18% trans ([OptoNAM-3] 1 µM): 0.656
Relative current for theoretical DRC 18% trans ([OptoNAM-3] 2 µM): 0.500
Relative current for theoretical DRC 18% trans ([OptoNAM-3] 3 µM): 0.416
Relative current for theoretical DRC 18% trans ([OptoNAM-3] 5 µM): 0.307
Relative current for theoretical DRC 18% trans ([OptoNAM-3] 30 µM): 0.073
remaining activity at 0.03 µM [1]: 93.3%
remaining activity at 0.1 µM [1]: 89%
remaining activity at 0.3 µM (OptoNAM-3 dark PSS (trans) + 0.2 µM ifenprodil, [OptoNAM-3] 0.3 µM): 77.3%
remaining activity at 2 µM (OptoNAM-3 dark PSS (trans) + 0.2 µM ifenprodil, [OptoNAM-3] 2 µM): 32.6%
remaining activity at 0.03 µM [2]: 95.1%
remaining activity at 0.1 µM [2]: 84.9%
remaining activity at 0.3 µM (OptoNAM-3 dark PSS (trans), no ifenprodil, [OptoNAM-3] 0.3 µM): 63.5%
remaining activity at 2 µM (OptoNAM-3 dark PSS (trans), no ifenprodil, [OptoNAM-3] 2 µM): 14.7%
Mean Relative current (IOpto/I0) ([OptoNAM-3] 0.025 µM, 365 nm PSS): 0.933
Mean Relative current (IOpto/I0) ([OptoNAM-3] 0.025 µM, dark PSS (trans)): 0.887
Mean Relative current (IOpto/I0) ([OptoNAM-3] 0.050 µM, 365 nm PSS): 0.910
Mean Relative current (IOpto/I0) ([OptoNAM-3] 0.050 µM, dark PSS (trans)): 0.827
Mean Relative current (IOpto/I0) ([OptoNAM-3] 0.125 µM, 350 nm PSS): 0.907
Mean Relative current (IOpto/I0) ([OptoNAM-3] 0.125 µM, 365 nm PSS): 0.912
Mean Relative current (IOpto/I0) ([OptoNAM-3] 0.125 µM, dark PSS (trans)): 0.758
Mean Relative current (IOpto/I0) ([OptoNAM-3] 0.220 µM, 365 nm PSS): 0.880
Mean Relative current (IOpto/I0) ([OptoNAM-3] 0.220 µM, dark PSS (trans)): 0.592
Mean Relative current (IOpto/I0) ([OptoNAM-3] 0.300 µM, 350 nm PSS): 0.918
Mean Relative current (IOpto/I0) ([OptoNAM-3] 0.300 µM, 365 nm PSS): 0.841
Mean Relative current (IOpto/I0) ([OptoNAM-3] 0.300 µM, dark PSS (trans)): 0.581
Mean Relative current (IOpto/I0) ([OptoNAM-3] 0.470 µM, 350 nm PSS): 0.900
Mean Relative current (IOpto/I0) ([OptoNAM-3] 0.500 µM, 365 nm PSS): 0.666
Mean Relative current (IOpto/I0) ([OptoNAM-3] 1.000 µM, 350 nm PSS): 0.860
Mean Relative current (IOpto/I0) ([OptoNAM-3] 1.000 µM, 365 nm PSS): 0.644
Mean Relative current (IOpto/I0) ([OptoNAM-3] 1.000 µM, dark PSS (trans)): 0.307
Mean Relative current (IOpto/I0) ([OptoNAM-3] 2.000 µM, 350 nm PSS): 0.656
Mean Relative current (IOpto/I0) ([OptoNAM-3] 2.000 µM, 365 nm PSS): 0.433
Mean Relative current (IOpto/I0) ([OptoNAM-3] 2.000 µM, dark PSS (trans)): 0.141
Mean Relative current (IOpto/I0) ([OptoNAM-3] 3.000 µM, 350 nm PSS): 0.613
Mean Relative current (IOpto/I0) ([OptoNAM-3] 3.000 µM, 365 nm PSS): 0.375
Mean Relative current (IOpto/I0) ([OptoNAM-3] 3.000 µM, dark PSS (trans)): 0.098
Mean Relative current (IOpto/I0) ([OptoNAM-3] 5.000 µM, 350 nm PSS): 0.446
Mean Relative current (IOpto/I0) ([OptoNAM-3] 5.000 µM, 365 nm PSS): 0.267
Mean Relative current (IOpto/I0) ([OptoNAM-3] 5.000 µM, dark PSS (trans)): 0.092
Mean Relative current (IOpto/I0) ([OptoNAM-3] 30.000 µM, 365 nm PSS): 0.034
Mean Relative current (IOpto/I0) ([OptoNAM-3] 30.000 µM, dark PSS (trans)): 0.00423
IC50 (control curve of the ifenprodil competition experiment, read-out: IC50 in the dark in absence of ifenprodil): 460 ± 60 nM
increase of IC50 by 0.2 µM ifenprodil (dark): ~ 2 fold
IC50 (dark PSS (trans), 100 µM glutamate + glycine, Xenopus oocytes, read-out: IC50 on GluN1/GluN2B receptors in the dark): 380 ± 30 nM
IC50 (dark PSS (trans), Xenopus oocytes, read-out: IC50 on GluN1/GluN2B receptors in the dark): 380 nM
UV/dark IC50 ratio (350 nm PSS vs dark) [3]: 11.5 fold
UV/dark IC50 ratio (365 nm PSS vs dark) [3]: 4.5 fold
IC50 (range over HEK cells and Xenopus oocytes, read-out: IC50 in the dark (trans isomer)): 150 to 380 nM
activity of the cis isomer on GluN1/GluN2B NMDARs (theoretical dose-response curve of a pure cis population calculated from 365 and 350 nm PSS): no inhibitory activity
